Experimental data: patent publication US20210261857A1, “PARTICLE COMPRISING AT LEAST ONE FERRIMAGNETIC OR FERROMAGNETIC IRON OXIDE NANOPARTICLE ASSOCIATED WITH AT LEAST ONE COMPOUND FOR MEDICAL OR COSMETIC USE” (NANOBACTERIE, priority 2015, published 2021)

Experiments:
Format in all cases: physicochemical
[1] = Luminescence as a function of pH (pH 2 to 12), suspension, supernate and rhodamine B alone; conditions: 125 μM, excited at 550 nm
Method: A suspension of MCR400 at 400 μg/mL in iron oxide and a 125 μM solution of rhodamine B were mixed with solutions of hydrochloric acid or with solutions of sodium hydroxide at concentrations ranging from 0.1 to 12 M to adjust the pH to values between 2 and 12. The samples containing the MCR400 suspensions thus treated are then placed against a magnet of 0.6 T for 12 hours at 4° C. and the supernate of the treated MCR400 suspensions is removed. The maximum luminescence intensity of the supernate of the MCR400 suspension, excited at 550 nm, decreases from 140 a.u. at pH 2 down to 20 a.u. at pH 12. On the other hand, the maximum luminescence intensity of rhodamine B alone, excited at 550 nm, increases from 440 a.u. up to 580 a.u. […] In contrast, for 2<pH<4, the emission wavelengths of rhodamine B alone, MCR400 and the supernate of MCR400, are similar, lying between 580 nm and 584 nm. These behaviors could be explained by the association of rhodamine B with magnetosomes for pH>4 and the dissociation of rhodamine B from magnetosomes for pH<4.

[2] = Luminescence after irradiation with a faxitron irradiator (irradiation probe); conditions: 0 to 1350 Gy, 125 μM rhodamine B, pH 7, 25° C., excited at 550 nm, measured at 578 nm
Method: Three suspensions are maintained at pH 7 and at a temperature of 25° C., containing either 400 μg/mL in iron oxide of MCR400, 125 μM of rhodamine B, or 400 μg/mL in iron oxide of MC mixed with 125 μM of rhodamine B. These suspensions are irradiated with a faxitron irradiator dosimeter (160 kV, 6.3 mA without filter, 67.5 Gy/min). The irradiation doses are between 0 and 1350 Gy. […] In contrast, when the MCR400 suspension is irradiated, the luminescence of the supernate of this suspension, excited at 550 nm and measured at 576 nm, increases sharply from 250 a.u. in the absence of irradiation to 600-950 a.u. in the presence of an irradiation larger than 250 Gy.

[3] = Luminescence of heated rhodamine B solution and MCR400 suspension (temperature probe); conditions: temperature increased from 20° C. to 80° C., 5 μM, pH 7, heated 30 minutes, excited at 405 nm
Method: A solution of rhodamine B of concentration 5 μM and pH 7 contained in a volume of 800 μL is excited at 405 nm and heated at different temperatures for 30 minutes using a dry heating bath. When the temperature of this solution increases from 20° C. to 80° C., the wavelength corresponding to the maximum luminescence of rhodamine B remains relatively unchanged while the maximum luminescence intensity of rhodamine B decreases strongly by 73% in agreement with previously published results (Journal of Luminescence, Vol. 27, p. 455 (1982)). A suspension of MCR400 at a concentration of 250 μg/mL in iron oxide and pH 7 contained in a volume of 800 μl is excited at 405 nm and heated at different temperatures for 30 minutes using a dry hot-water heating bath. MCR400 excited at 405 nm produce maximum luminescence intensity at 569 nm. The behavior of the MCR400 is different from that of rhodamine B. Indeed, between 20° C. and 80° C., the maximum of the luminescence peak is observed at 569 nm and the luminescence intensity of the MCR400 increases sharply by 66%. The luminescence intensity of rhodamine B would initially be quenched when rhodamine B is associated with magnetosomes and would increase with the dissociation of rhodamine B from magnetosomes under the effect of a temperature increase.

[4] = Fluorescence lifetime by the frequency method; conditions: excitation 445 nm, MCR400 5 mg/mL in iron oxide, rhodamine B 5 μM
Method: Life time experiments were carried out using the frequency method. The set-up uses a modulated laser diode as excitation source, a confocal fluorescence spectroscope, a control unit for intensifying images and a camera, frequency generators and a spectrograph controller. The modulation frequency has been varied between 30 and 180 MHz. The excitation wavelength is 445 nm. The laser light is modulated by a radio frequency signal. An interference filter suppresses parasitic fluorescence from the laser diode and a high pass filter is placed in the detection path to decrease scattering. A volume of 1 mL of a suspension of MCR400 at 5 mg/mL in iron oxide and rhodamine B at a concentration of 5 μM was placed in a dry heating bath for 5 minutes to heat the suspensions at 25° C. and at 45° C. 10 μl of a suspension of MCR400 at 5 mg/ml in iron oxide and rhodamine B at a concentration of 5 μM were deposited on a slide and then placed in front of an objective ×40 to measure the fluorescence lifetime of each suspension.

[5] = Luminescence of heated DiI and BNF-DiI suspensions and supernate; conditions: excited at 530 nm
Method: A suspension of DiI of concentration 5.4 μM and pH 7 is heated at various temperatures lying between 20 and 90° C. for 30 minutes using a dry heating bath. […] When a suspension containing BNF-DiI mixed in water at a concentration of 80 μg/mL in iron oxide is heated at temperatures lying between 20 and 90° C. using a dry heating bath, the behavior is different from that observed with DiI alone.
In order to determine if the luminescence variation of the BNF-DiI is due to the dissociation of DiI from the BNF, the maximum intensity of luminescence of the supernate of BNF-DiI and DiI alone, excited at 530 nm, were measured for suspensions containing BNF-DiI or DiI alone heated at different temperatures between 20 and 90° C. for a period of 0 to 30 minutes.

| Compound | maximum luminescence intensity of the solution ([1]; end of the pH increase (pH range 2 to 12)) [a.u.] | maximum luminescence intensity of the solution ([1]; start of the pH increase (pH range 2 to 12)) [a.u.] | luminescence on irradiation (solution, or supernate of the mixture) [2] | decrease of maximum luminescence intensity [3] [%] | fluorescence lifetime ([4]; 25° C.) [ns] | fluorescence lifetime ([4]; 45° C.) [ns] | maximum luminescence intensity as a function of heating temperature ([5]; heated 30 minutes, DiI 5.4 μM pH 7, BNF-DiI 80 μg/mL in iron oxide) | luminescence intensity of the substance alone on heating ([5]; heated between 20 and 90° C. for 0 to 30 minutes) |
| --- | --- | --- | --- | --- | --- | --- | --- | --- |
| CCN(CC)c1ccc2c(-c3ccccc3C(=O)O)c3ccc(=[N+](CC)CC)cc-3oc2c1.[Cl-] [rhodamine B] | 580 | 440 | do not vary or decrease | 73 | 1.6 | 1.3 |  |  |
| CCCCCCCCCCCCCCCCCCN1C(=CC=CC2=[N+](CCCCCCCCCCCCCCCCCC)c3ccccc3C2(C)C)C(C)(C)c2ccccc21.[O-][Cl+3]([O-])([O-])[O-] [DiI, 1,1′-Dioctadecyl-3,3,3′,3′-tetramethyl-indocarbocyanine perchlorate] |  |  |  |  |  |  | increases between 20 and 60 °C and then decreases between 60 and 100 °C | does not significantly decrease |
